Patent US11154479B1, “Methods of removing color from color-treated hair” (L'Oreal, priority 2020, dated 2021)
Like-named read-outs stand apart in the source and are kept apart here.

Columns and labels:
[1] = Octanol/water partition coefficient (Log Pow) of direct dyes; format: physicochemical; details: octanol/water partition coefficient of the dye
Excerpt: Pow is the octanol/water partition coefficient, which can be defined as the ratio of the concentration of a solute, such as the direct dye in the present disclosure, in a water-saturated octanolic phase to its concentration in an octanol-saturated aqueous phase. The octanol/water partition coefficient is typically expressed in Logarithmic form.
There are several existing experimental methods by the Organisation for Economic Co-operation and Development (OECD) and Quantitative Structure-Property Relationship (QSPR) models available for Log Pow measurement or prediction. The experimental methods include: the ‘slow-stirring’ method (OECD Test No. 123), the high-performance liquid chromatography (HPLC) method (OECD Test No. 117), and shake flask methods (referred to in OECD Test No. 107).
Thus, partition coefficient of a dye may be calculated as follows: Log Pow=Log [(dye concentration in octanol)/(dye concentration in water)].
The Log Pow value of a direct dye can be positive, negative or neutral. The Log Pow values for some dyes follows in the below table.

[2] = Removal of HC Blue 15 from dyed hair swatches by organic salt solutions (ΔE, CIE L*a*b*); details: HC Blue 15 dyed hair; for ΔE: soaked 30 minutes at 40° C., shampooed once
Procedure: (§1) Unless otherwise indicated, hair swatches were all treated using the same protocol. Specifically, 2 g dyed hair swatches are soaked in 80 g treatment solution in water for 30 minutes at 40° C., then the treated hair swatches are then shampooed/washed once (rinsing step) and blow-dried for evaluation.
(§2) Unless otherwise indicated, color removal performance is measured using CIE L* a* b* coordinates. ΔE is used to describe the color difference and is defined by the following equation: ΔE*ab=√{square root over ((L*2−L*1)^2+(a*2−a*1)^2+(b*2−b*1)^2)} where, L1*, a1; b1 are measured on freshly dyed hair L2*, a2, b2 are measured on the dyed hair treated by color remover systems. The higher ΔE values, the more efficient the color removal.
Hair swatches dyed with HC Blue 15 were treated with the organic salts at varying concentrations using the protocol described above.

[3] = Removal of Basic Red 51 from dyed hair swatches by organic salt solutions (ΔE); details: 10% organic salt in water; Basic Red 51 dyed hair; soaked 30 minutes at 40° C.; water control 5.3
Procedure: as §1, §2
Hair swatches dyed with Basic Red 51 were treated with BMIM octylsulfate and TBuMA Cl, each at 10% concentration using the protocol described above. Basic Red 51 contains a quaternary moiety and has the structure below.

[4] = 10% organic salt in water; hydroxyanthraquinoneaminopropyl methyl morpholinium methosulfate dyed hair; 30 minutes at 40° C.; water control 2.9

| Compound | Log Pow [1] | ΔE ([2]; 25% organic salt in water) | ΔE [3] | ΔE [4] | ΔE ([2]; 1% organic salt in water) | ΔE ([2]; 5% organic salt in water) | ΔE ([2]; 10% organic salt in water) | Concentration of organic salt from which the ΔE value increased significantly [2] |
| --- | --- | --- | --- | --- | --- | --- | --- | --- |
| COS(=O)(=O)[O-].C[N+]1(CCCNc2ccc(O)c3c2C(=O)c2ccccc2C3=O)CCOCC1 [Hydroxyanthraquinoneaminopropyl methyl morpholinium methosulfate] | around 2.89 | – | – | – | – | – | – | – |
| CCCC[N+](C)(CCCC)CCCC.[Cl-] [TBuMA Cl, tributylmethyl ammonium chloride] | – | 32.8 | 23.1 | – | – | – | – | – |
| butyl-3-methylimidazolium octyl sulfate [BMIM octyl sulfate] | – | – | 22.2 | 39.1 | 1.3 | 18.4 | 32.2 | about 5% |
